Assay results taken from ChEMBL document CHEMBL3867469, “Discovery of phenoxyindazoles and phenylthioindazoles as RORγ inverse agonists” (Bioorg Med Chem Lett, 2016).

Legend:
[1] = biological target: T1, Nuclear receptor ROR-gamma (Homo sapiens, UniProt P51449)
T1 sequence (P51449 whole entry): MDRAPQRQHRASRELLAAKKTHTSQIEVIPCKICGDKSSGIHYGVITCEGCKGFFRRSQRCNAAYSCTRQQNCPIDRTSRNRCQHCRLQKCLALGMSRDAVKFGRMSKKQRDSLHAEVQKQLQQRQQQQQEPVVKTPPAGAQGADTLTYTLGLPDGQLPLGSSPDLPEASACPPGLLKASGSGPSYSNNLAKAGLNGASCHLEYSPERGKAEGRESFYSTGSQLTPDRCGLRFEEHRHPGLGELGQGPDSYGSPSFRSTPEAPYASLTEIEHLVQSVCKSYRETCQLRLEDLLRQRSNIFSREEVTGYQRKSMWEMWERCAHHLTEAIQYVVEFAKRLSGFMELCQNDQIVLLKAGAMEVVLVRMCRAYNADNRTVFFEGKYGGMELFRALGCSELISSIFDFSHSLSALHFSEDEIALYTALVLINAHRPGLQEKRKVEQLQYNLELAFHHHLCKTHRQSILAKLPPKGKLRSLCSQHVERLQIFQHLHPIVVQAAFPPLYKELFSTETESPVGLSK
Description: Inverse agonist activity at GAL4 DBD-fused RORgammat LBD (unknown origin) expressed in HG5LN cells after 18 hrs by luciferase reporter gene assay

[2] = biological target: T2, Retinoic acid receptor gamma (Homo sapiens, UniProt P13631)
T2 sequence (P13631 whole entry): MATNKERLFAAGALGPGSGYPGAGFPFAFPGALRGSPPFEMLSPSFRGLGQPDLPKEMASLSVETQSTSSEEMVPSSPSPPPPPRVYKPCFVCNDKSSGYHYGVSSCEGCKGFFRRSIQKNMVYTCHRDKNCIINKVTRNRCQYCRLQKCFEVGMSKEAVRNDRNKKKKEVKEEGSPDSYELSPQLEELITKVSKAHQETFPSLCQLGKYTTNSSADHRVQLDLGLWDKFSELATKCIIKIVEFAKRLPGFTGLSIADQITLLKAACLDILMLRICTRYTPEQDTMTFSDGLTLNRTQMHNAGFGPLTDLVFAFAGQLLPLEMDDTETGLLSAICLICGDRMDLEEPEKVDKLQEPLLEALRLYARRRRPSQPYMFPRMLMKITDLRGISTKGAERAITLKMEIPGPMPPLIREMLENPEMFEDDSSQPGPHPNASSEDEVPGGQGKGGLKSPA
Description: Inverse agonist activity at GAL4 DBD-fused RARgamma LBD (unknown origin) expressed in human HG5LN cells after 18 hrs by luciferase reporter gene assay

physchem = conditions: buffer, pH 6.5
in vitro = conditions: human, neonatal keratinocytes
Description: Photocytotoxicity against human neonatal keratinocytes assessed as decrease in cell viability by measuring ratio of IC50 in presence of UV to IC50 in absence of UV after 30 mins by neutral red dye based assay

[3] = Photocytotoxicity against human neonatal keratinocytes assessed as decrease in cell viability preincubated for 30 mins followed by 5 J/cm2 UV light irradiation for 15 mins measured after 24 hrs by neutral red dye based assay; format: toxicity; conditions: neonatal keratinocyte

| SMILES | IC50 [1] [µM] | IC50 [2] [µM] | logD (physchem) | selectivity ratio at 0.5 h (in vitro) | Activity [3] |
| --- | --- | --- | --- | --- | --- |
| O=C(O)c1ccc(-n2nc(Oc3c(Cl)cccc3Cl)c3cccnc32)cc1 | 1.2 | 3.8 | 2.3 | 190 | – |
| O=C(O)c1ccc(-n2nc(Sc3c(Cl)cccc3Cl)c3cc(C(=O)N4CCCC4)ccc32)cc1 | 2.6 | > 10 | 1.9 | – | – |
| O=C(O)c1ccc(-c2nn(C(=O)c3c(Cl)cccc3Cl)c3ccccc23)cc1 | 0.06 | 1.3 | 2.4 | – | Toxic |
| O=C(O)c1ccc(-n2nc(Nc3c(Cl)cccc3Cl)c3ccccc32)cc1 | 2.5 | > 10 | 1.9 | – | – |
| O=C(O)c1ccc(-n2nc(Oc3c(Cl)cccc3Cl)c3ncccc32)cc1 | 2.1 | 6.8 | 1.3 | 11 | – |
| N#Cc1ccc2c(c1)c(Oc1c(Cl)cccc1Cl)nn2-c1ccc(C(=O)O)cc1 | > 10 | 1.4 | 2.6 | 138 | – |
| CS(=O)(=O)c1ccc2c(c1)c(Oc1c(Cl)cccc1Cl)nn2-c1ccc(C(=O)O)cc1 | > 10 | 4.5 | 1.7 | 87 | – |
| CN(C)C(=O)c1ccc2c(Oc3c(Cl)cccc3Cl)nn(-c3ccc(C(=O)O)cc3)c2c1 | > 10 | > 10 | 1.8 | 18 | – |
| O=C(O)[C@H]1CC[C@H](n2nc(Oc3c(Cl)cccc3Cl)c3ccccc32)CC1 | > 10 | > 10 | 3.1 | 41 | – |
| CCN(C)C(=O)c1ccc2c(c1)c(Sc1c(Cl)cccc1Cl)nn2-c1ccc(C(=O)O)cc1 | 6.5 | > 10 | 1.9 | – | – |
| O=C(O)c1ccc(-n2nc(Oc3c(Cl)cccc3Cl)c3ccccc32)cc1 | 0.14 | 1.4 | 2.8 | > 62 | – |
| Cc1ccccc1Sc1nn(-c2ccc(C(=O)O)cc2)c2ccc(C(=O)N(C)C)cc12 | > 10 | > 10 | 1.4 | – | – |
| CN(C)C(=O)c1ccc2c(c1)c(Sc1cccc(Cl)c1Cl)nn2-c1ccc(C(=O)O)cc1 | 5.9 | > 10 | 2.1 | – | Toxic |
| CN(C)C(=O)c1ccc2c(c1)c(Sc1cc(Cl)ccc1Cl)nn2-c1ccc(C(=O)O)cc1 | 4.3 | > 10 | 1.9 | – | – |
| O=C(O)c1ccc(-n2nc(Cc3c(Cl)cccc3Cl)c3ccccc32)cc1 | 1.8 | 6.8 | 2.8 | – | – |
| CN(C)C(=O)c1ccc2c(c1)c(Sc1ccc(Cl)cc1Cl)nn2-c1ccc(C(=O)O)cc1 | > 10 | > 10 | 2.2 | – | Toxic |
| Cc1cc(C(=O)O)ccc1-n1nc(Oc2c(Cl)cccc2Cl)c2ccccc21 | 3.6 | 6.2 | 3 | 41 | – |
| O=C(O)c1ccc(-n2nc(Sc3c(Cl)cccc3Cl)c3cc(C(=O)N4CCC4)ccc32)cc1 | 1.2 | 4.1 | 1.7 | – | – |
| CCS(=O)(=O)c1ccc(CC(=O)Nc2nc(-c3cccc(Cl)c3)c(C(=O)c3ccccc3Cl)s2)cc1 | 0.08 | > 10 | 5.2 | – | – |
| CN(C)C(=O)c1ccc2c(c1)c(Sc1c(Cl)cccc1Cl)nn2-c1ccc(C(=O)O)cc1 | 0.59 | > 10 | 1.6 | – | Toxic |
| Cc1cccc2c1c(Oc1c(Cl)cccc1Cl)nn2-c1ccc(C(=O)O)cc1 | 0.82 | 1.1 | 3.6 | 19 | – |
| O=C(O)[C@H]1CC[C@@H](n2nc(Oc3c(Cl)cccc3Cl)c3ccccc32)CC1 | > 10 | > 10 | 3.4 | 108 | – |
| CN(CCO)C(=O)c1ccc2c(c1)c(Sc1c(Cl)cccc1Cl)nn2-c1ccc(C(=O)O)cc1 | > 10 | > 10 | 0.8 | – | – |
| O=C(O)c1ccc(-n2nc(Sc3c(Cl)cccc3Cl)c3cc(C(=O)N4CCOCC4)ccc32)cc1 | 6 | 4.2 | 1.5 | – | – |
| CN(C)C(=O)c1ccc2c(-c3ccc(C(=O)O)cc3)nn(C(=O)c3c(Cl)cccc3Cl)c2c1 | 0.054 | > 10 | 1.3 | – | – |

| SMILES | IC50 [1] [µM] | IC50 [2] [µM] | logD (physchem) | selectivity ratio at 0.5 h (in vitro) | Activity [3] |
| --- | --- | --- | --- | --- | --- |
| CN1CCN(C(=O)c2ccc3c(c2)c(Sc2c(Cl)cccc2Cl)nn3-c2ccc(C(=O)O)cc2)CC1 | 9.2 | 7.7 | 1 | – | – |
| O=C(O)c1cc(F)c(-n2nc(Oc3c(Cl)cccc3Cl)c3ccccc32)c(F)c1 | 0.31 | > 10 | 2.9 | 16 | – |
| Cc1cc(C)c(Sc2nn(-c3ccc(C(=O)O)cc3)c3ccc(C(=O)N(C)C)cc23)c(C)c1 | 2.7 | > 10 | 2.1 | – | – |
| Cc1cccc(C)c1Sc1nn(-c2ccc(C(=O)O)cc2)c2ccc(C(=O)N(C)C)cc12 | 0.37 | > 10 | 1.6 | – | Toxic |
| CN(C)C(=O)c1ccc2c(c1)c(Sc1c(F)cccc1Cl)nn2-c1ccc(C(=O)O)cc1 | 5 | > 10 | 1.4 | – | Toxic |
| O=C(O)c1ccc(-n2nc(Sc3c(Cl)cccc3Cl)c3cc(C(=O)N4CC(F)(F)C4)ccc32)cc1 | 0.72 | > 10 | 2.3 | – | – |
| CN(C)C(=O)c1ccc2c(c1)c(Nc1c(Cl)cccc1Cl)nn2-c1ccc(C(=O)O)cc1 | 3.6 | > 10 | 0.9 | – | – |
| CN(C)C(=O)c1ccc2c(c1)c(Oc1c(Cl)cccc1Cl)nn2-c1ccc(C(=O)O)cc1 | 0.3 | > 10 | 1.5 | – | – |
| O=C(O)c1ccc(-n2nc(Oc3c(Cl)cccc3Cl)c3c(F)cccc32)cc1 | 0.26 | 0.8 | 2.8 | > 90 | – |
| O=C(O)c1ccc(-n2nc(Oc3c(Cl)cccc3Cl)c3ccccc32)c(F)c1 | 0.24 | > 10 | 2.8 | 32 | – |
| CN(Cc1ccccc1)C(=O)c1ccc2c(c1)c(Sc1c(Cl)cccc1Cl)nn2-c1ccc(C(=O)O)cc1 | > 10 | > 10 | 2.9 | – | – |
| O=C(O)c1ccc(-n2nc(S(=O)(=O)c3c(Cl)cccc3Cl)c3ccccc32)cc1 | 4.8 | 8.4 | 1.8 | – | – |
| O=C(O)c1ccc(-n2nc(Sc3c(Cl)cccc3Cl)c3ccccc32)cc1 | 2.5 | 4.4 | 2.9 | – | Toxic |
| O=C(O)c1ccc(-n2nc(Oc3c(Cl)cccc3Cl)c3ccccc32)nc1 | 1.1 | 1.9 | 2.9 | 90 | – |
| CN(c1c(Cl)cccc1Cl)c1nn(-c2ccc(C(=O)O)cc2)c2ccccc12 | > 10 | – | 2.6 | – | – |
| O=C(O)c1ccc(-n2nc(Oc3c(Cl)cccc3Cl)c3cccc(F)c32)cc1 | 0.088 | 7.6 | 2.8 | 30 | – |
| Cc1cccc2c(Oc3c(Cl)cccc3Cl)nn(-c3ccc(C(=O)O)cc3)c12 | > 10 | > 10 | 2.6 | – | – |
| CNC(=O)c1ccc2c(c1)c(Sc1c(Cl)cccc1Cl)nn2-c1ccc(C(=O)O)cc1 | > 10 | 2.7 | 1.2 | – | – |
| Clc1cccc(Cl)c1Oc1n[nH]c2ccccc12 | > 10 | 5.7 | 4.9 | 1.6 | – |
| CN(C)C(=O)c1ccc2c(c1)c(Sc1ccccc1)nn2-c1ccc(C(=O)O)cc1 | > 10 | 3.5 | 1 | – | – |
| CCc1nn(C)c(CC)c1Oc1nn(-c2ccc(C(=O)O)cc2)c2ccccc12 | 4.8 | 9.1 | 1.6 | 121 | – |
| O=C(O)c1ccc(-n2nc([S+]([O-])c3c(Cl)cccc3Cl)c3ccccc32)cc1 (stereo unspecified) | 6.2 | 5.6 | 1.2 | – | – |
| Cc1ccc([C@@H](NC(=O)Cc2ccc3oc([C@@H](O)c4c(C)noc4C)cc3c2)c2ccccc2)c(C)c1 | 0.044 | > 10 | 4.7 | – | – |
| O=C(O)c1ccc(-n2nc(Oc3c(Cl)cccc3Cl)c3ccccc32)cn1 | > 10 | > 10 | 3.7 | 30 | – |
